{"source": "patent US20210186947A1", "about": "“TOMM6-INTERACTING EXTRACTS AND COMPOUNDS FOR USE IN THE TREATMENT AND PROPHYLAXIS OF NERVOUS SYSTEM DISEASES, ATHEROSCLEROSIS, HEPATITIS B INFECTION AND HUMAN PAPILLOMA VIRUS (HPV) INFECTION” (ETH ZURICH, priority 2018, published 2021)", "key": {"[1]": {"test_system": "angiotensin II AT2 receptor (AT2R, AGTR2)", "assay": "AT2R protein aggregation assay in HEK cells, immunoblot", "type": "cell-based, human", "details": "10 microM for 72 h", "protocol": "Proteins were also extracted from yeast cells and HEK cells expressing the indicated protein (i.e. HBsAg or AGTR2) as described above. Neuronal cell loss and hyperphosphorylated Tau in hippocampi of 15 months-old Tg2576 mice subjected to the CUMS protocol for 3 months was determined with crude homogenates of dissected hippocampi by direct binding assay with neuron-specific [^125I]-labeled anti-NeuN antibody (MAB377, clone A60, EMD Millipore, Merck KGaA, Darmstadt, Germany) and [^125I]-labeled AT8 antibody similarly as described (AbdAlla et al., J. Biol. Chem. 284, 6554-6565 (2009)).\nIn the second non-Abeta-based protein aggregation assay, different plant extracts were tested in a mammalian cell system, which analyzed the protein aggregation of the angiotensin II AT2 receptor (AT2R, AGTR2) protein in human embryonic kidney (HEK) cells. The system has physiological relevance because this cellular system is capable to reproduce AT2R protein aggregation, which also occurs in brains of AD patients and AD animal models (AbdAlla et al., J. Biol. Chem. 284, 6554-6565 (2009); AbdAlla et al., J. Biol. Chem. 284, 6566-6574 (2009)). The AT2 receptor in human embryonic kidney (HEK) cells forms stable dimers/oligomers under pro-oxidant conditions, which are resistant to urea-containing reducing SDS-PAGE (FIG. 2A, and AbdAlla et al., J. Biol. Chem. 284, 6566-6574 (2009)). […]"}, "[2]": {"test_system": "hyperphosphorylated PHF-Tau", "assay": "Hippocampal hyperphosphorylated PHF-Tau in Tg2576 mice subjected to CUMS, binding assay with [125I]-labeled AT8 antibody", "type": "in vivo", "details": "15 months-old Tg2576 mice, 3 months of CUMS, treated during CUMS; compounds 10 mg/kg/d"}, "[3]": {"test_system": "hippocampal neuronal cell bodies (NeuN)", "assay": "Hippocampal neuronal loss in Tg2576 mice subjected to CUMS, binding assay with [125I]-labeled anti-NeuN antibody", "type": "in vivo", "details": "15 months-old Tg2576 mice, 3 months of CUMS, treated during CUMS; compounds 10 mg/kg/d"}, "HPV-induced warts": {"test_system": "HPV-induced warts", "assay": "Phase-1 placebo-controlled study of topical Compound-1 on flat warts", "type": "in vivo, human", "details": "once daily topical Compound-1-containing hydrogel (0.2%) for 3 weeks", "protocol": "The study analyzed the treatment effect of topical administration of Compound-1 on warts. The study was performed according to the study protocol. Study design: The study was a phase-1, placebo-controlled study of Compound-1. The primary end-point was safety and tolerability. Secondary objectives were treatment effects on wart lesion size. The study included a cohort of 6 voluntary research participants (6 males; age 36-72 years; all Caucasians) with diagnosed flat warts. A total number of 94 lesions were treated with Compound-1. Vehicle-treated warts (n=88) of each participant served as placebo group. Study participants received once daily topical applications of a Compound-1-containing hydrogel (0.2%) or vehicle for 3 weeks. The study participants were under the medical supervision of Dr. Raafat Mahmood Fawzy (Clinical Director, Rabaa El Adaweya Medical Central Hospital, Cairo, Egypt). Clinical laboratory parameters of all research participants were within the normal range before, during the study and after completion of the study (observation period 4 weeks). […] The study protocol was conducted in accordance with the Declaration of Helsinki. All research participants provided written informed consent before participation. Research participants had the possibility to withdraw at any time from the study. But all participants wanted to complete the study.\nA total number of 94 lesions were treated with Compound-1. Vehicle-treated warts (n=88) served as placebo. […] The treatment effect of Compound-1 against HPV infection is directly related to its activity as TOMM6 inducer/activator, which is a sufficient cause to inhibit (amyloidogenic) protein aggregation in cells and in vivo. In this context, HPV infection is another disease with causal involvement of an aggregation-prone amyloidogenic protein. Without wishing to be bound by theory, it is believed that Infections with human papillomaviruses (HPV) rely on the highly amyloidogenic protein E1AE4, also known as the HPV E4 protein (McIntosh et al., 82, 8196-8203 (2008)). The HPV E4 protein, which uses the amyloid-fold as does amyloid-beta, is the most abundantly expressed viral transcript/protein in HPV-infected epithelia, and mediates HPV-mediated disruption of cellular integrity, HPV release from infected epithelial cells and virus transmission (McIntosh et al., 82, 8196-8203 (2008); Doorbar, Virology 445, 80-98 (2013)). In HPV-induced warts, the aggregation-prone HPV E4 protein can constitute between 20% and 30% of the total wart protein (Doorbar et al., EMBO J. 5, 355-362 (1986)). The expression of E1AE4 relies on self-aggregation of the HPV E4 protein (Bryan et al., Virology 241, 49-60 (1998))."}, "[4]": {"assay": "Tolerability / toxicity in dogs during four weeks of oral treatment", "type": "in vivo", "details": "once daily oral dose up to 6 mg/kg/d", "method": "Sub-chronic toxicity studies in dogs (German Shepherd dogs) and rats (Sprague Dawley rats) were performed by the Center of Applied Analytical and Veterinary Studies, Cairo, Egypt."}, "[5]": {"details": "humans; cited from earlier work"}, "[6]": {"assay": "Body weight and food intake of B6 mice under oral treatment", "details": "oral 100 mg/kg/day for 4 weeks"}}, "data": [{"smiles": "O=C1c2ccccc2C(=O)c2c1ccc(O)c2O", "note": "[Compound-1, 1,2-dihydroxyanthraquinone]", "values": [{"measurement": "aggregation of the AT2 receptor", "setting": "[1]", "value": "inhibited the aggregation of the AT2 receptor"}, {"measurement": "hippocampal content of hyperphosphorylated PHF-Tau", "setting": "[2]", "value": "significantly decreased hippocampal content of hyperphosphorylated PHF-Tau"}, {"measurement": "hippocampal neuronal loss", "setting": "[3]", "value": "prevented"}, {"measurement": "response of treated warts", "setting": "HPV-induced warts", "value": "showed a response"}, {"measurement": "adverse effects (safety and tolerability)", "setting": "HPV-induced warts; 6 participants", "value": "no adverse effects"}, {"measurement": "lesions with complete response (100% decrease of the lesion area)", "setting": "HPV-induced warts; 94 lesions", "value": "more than 86%"}, {"measurement": "lesions with partial response (>50%-<100% decrease of lesion area)", "setting": "HPV-induced warts; 94 lesions", "value": 13.8, "unit": "%"}, {"measurement": "adverse effects (behaviour, food intake, weight gain, cardiovascular parameters, blood cells, clinical chemistry)", "setting": "[4]", "value": "did not induce any detectable adverse effects"}, {"measurement": "toxicity of long-term treatment for several years", "setting": "[5]", "value": "is not toxic"}, {"measurement": "body weight", "setting": "[6]; 12-week-old B6 mice", "value": "did not significantly alter"}, {"measurement": "daily food intake / food consumption", "setting": "[6]; B6 mice", "value": "did not significantly alter"}]}]}
